Reference: US20240358717A1, “APPLICATION OF B-ECDYSTERONE IN PREPARATION OF MEDICINE FOR URIC ACID-LOWERING AND HYPERURICEMIC KIDNEY INJURY” (Institute of Chinese Materia Medica, China Academy of …, priority 2023, published 2024)

Key:
Type in all cases: in vivo, SD rats
rats with hyperuricemia [1] = assay: Kidney function biochemical indicators (serum BUN and SCr) in rats with hyperuricemia; settings: for BUN / SCr: serum, mean±SD
Description: The establishment of the model as well as the experimental grouping and administration were the same as in Example 1.
1.1 Kidney function biochemical indicators detection: the method of blood sampling and serum collection was the same as in Example 1, and an Automatic Chemical Analysis was used to detect the content of serum creatinine (SCr) by using the creatine oxidase method, and to detect the content of blood urea nitrogen (BUN) by using the urease method and the kinetic method. the effect of β-ecdysterone on the level of blood BUN and SCr of rats with hyperuricemia is shown in Table 2.

rats with hyperuricemia [2] = assay: Effect on blood uric acid level in rats with hyperuricemia (adenine combined with ethambutol model); settings: for Blood uric acid: serum, 16 h fasting after last administration, mean±SD; for Uric acid reduction Percentage: versus model group
Description: There were 80 Male SPF grade SD rats, weighing 200-220 g, were purchased from Beijing Vital River Laboratory Animal Technology Co., Ltd., license No. SCXK (Beijing) 2016-0006. The animals were housed in a barrier environment animal laboratory, with automatic temperature control (temperature 20-26° C.), relative humidity 40-70%, and full fresh air. Artificial light was adopted with a 12-hour light-dark cycle. Group experiments were started after 1 day of acclimatization. Animals were fed with standard rat pellet feed, provided by Beijing Keao Xieli Feed Co. Ltd., with purified water.
The rats were randomly divided into 10 groups of 8 rats each:
(1) negative control group (control group); (2) model group; (3) β-ecdysterone underdose group-1, 6 mg/kg; (4) β-ecdysterone underdose group-2, 12 mg/kg; (5) β-ecdysterone low dose group 25 mg/kg; (6) β-ecdysterone medium dose group 50 mg/kg; (7) β-ecdysterone high dose group 100 mg/kg; (8) β-ecdysterone overdose group 200 mg/kg; (9) allopurinol group 25 mg/kg; (10) benzbromarone group 25 mg/kg.
1.2 Establishment of Adenine Combined with Ethambutol-Induced Hyperuricemia Combined with Kidney Injury Model in Rats
Adenine was purchased from Sigma-Aldrich (USA), and 0.5% CMC-Na (sodium carboxymethyl cellulose) solution was used to formulate a suspension at a concentration of 20 mg/mL, ready-to-use, with an administration volume of 5 mL/kg and a dosage of 100 mg/kg. Ethambutol hydrochloride tablets were purchased from Chengdu Jinhua Pharmaceutical Co., Ltd, and 0.5% CMC-Na solution was used to formulate a suspension at a concentration of 50 mg/ml, ready-to-use, with an administration volume of 5 mL/kg and a dosage of 250 mg/kg. The modeling drug adenine 100 mg/kg and ethambutol 250 mg/kg were administered by gavage in the model group and the CQ group at each dose, from day 1, and both were administered once a day for a total of 7 days, to prepare a hyperuricemia rat model. An equal amount of 0.5% CMC-Na solution was administered by gavage in the control group at the relative time.
Observation and detection indicators: fasting for 16 hours after the last administration, blood was collected from the abdominal aorta of rats in each group, centrifuged at 3500 rpm for 15 minutes after standing, separated and collected serum, and the content of uric acid in the serum was measured using an Automatic Chemical Analysis.
Statistical methods: data were expressed as mean±standard deviation and analyzed by one-way ANOVA. Each administration group was compared with the model group separately.

rats with hyperuricemia [3] = assay: Urate deposition in rat kidney tissues (hexamine silver staining)
Description: (§1) The establishment of the model as well as the experimental grouping and administration were the same as in Example 1. 1.2 Pathological examination of kidney tissue: anesthetize rats, dissect, and remove kidney tissue. The kidney tissues were fixed with 10% neutral formalin. After sufficient fixation, sampling, gradient dehydration, xylene transparency, paraffin embedding, and preparation of 3 μm paraffin sections were performed according to routine procedures. The kidney tissue lesions as well as urate deposition in the kidney tissues were examined by light microscopy using, HE (hematoxylin & eosin) staining and hexamine silver staining, respectively. […] Among them, A in FIG. 1 and FIG. 2 is the control group, B is the model group, C and D are both β-ecdysterone underdose group, E is β-ecdysterone low dose group, F is β-ecdysterone medium dose group, G is β-ecdysterone high dose group, H is β-ecdysterone overdose group, I is allopurinol group, and J is benzbromarone group. The length unit in the lower right corner of the figure is 50 μm.

rats with hyperuricemia [4] = assay: Pathological examination of rat kidney tissue (HE staining); settings: for pathology of kidney tissues: HE staining; for protective effect on kidney injury combined with hyperuricemia: overall conclusion from hexamine silver staining, biochemical and pathological results
Description: as §1

Oc1ncnc2[nH]ncc12 [Allopurinol, allopurinol, reference compound] was tested, and the BUN (rats with hyperuricemia [1]; 25 mg/kg) was 12.17 ± 3.03 mmol/L, the SCr (rats with hyperuricemia [1]; 25 mg/kg) was 48.16 ± 6.95 µmol/L and the “serum BUN level compared with the model group” value (rats with hyperuricemia [1]; positive drugs, 25 mg/kg) was “did not show significant differences”. For the same compound, the “serum SCr level compared with the model group” value (rats with hyperuricemia [1]; positive drugs, 25 mg/kg) was “did not show significant differences”, the Blood uric acid (rats with hyperuricemia [2]; 25 mg/kg) was 109.11 ± 21.66 µmol/L and the “Uric acid reduction Percentage” value (rats with hyperuricemia [2]; 25 mg/kg) was 48.90%. The “urate crystals deposition in kidney tissue” value (shortened to “urate crystals deposition”) (rats with hyperuricemia [3]; positive drugs, 25 mg/kg) was “significantly reduced”, the “pathology of kidney tissues” value (rats with hyperuricemia [4]; 25 mg/kg) was “severe renal tubules dilatation, tubular wall thinning, eosinophilic degeneration, and inflammatory cell infiltration were observed” and the “protective effect on kidney injury combined with hyperuricemia” value (“protective effect” for short) (rats with hyperuricemia [4]) was “did not have a significant protective effect”.
CCc1oc2ccccc2c1C(=O)c1cc(Br)c(O)c(Br)c1 [Benzbromarone, benzbromarone, reference compound] was tested, and the BUN (rats with hyperuricemia [1]; 25 mg/kg) was 10.91 ± 2.66 mmol/L, the SCr (rats with hyperuricemia [1]; 25 mg/kg) was 50.64 ± 7.92 µmol/L and the “serum BUN level compared with the model group” value (rats with hyperuricemia [1]; positive drugs, 25 mg/kg) was “did not show significant differences”. For the same compound, the “serum SCr level compared with the model group” value (rats with hyperuricemia [1]; positive drugs, 25 mg/kg) was “did not show significant differences”, the Blood uric acid (rats with hyperuricemia [2]; 25 mg/kg) was 112.53 ± 30.78 µmol/L and the “Uric acid reduction Percentage” value (rats with hyperuricemia [2]; 25 mg/kg) was 44.37%. For the same compound, the “urate crystals deposition” value (rats with hyperuricemia [3]; positive drugs, 25 mg/kg) was “significantly reduced”, the “pathology of kidney tissues” value (rats with hyperuricemia [4]; 25 mg/kg) was “severe renal tubules dilatation, tubular wall thinning, eosinophilic degeneration, and inflammatory cell infiltration were observed” and the “protective effect” value (rats with hyperuricemia [4]) was “did not have a significant protective effect”.
CC(C)(O)CC[C@@H](O)[C@](C)(O)[C@H]1CC[C@@]2(O)C3=CC(=O)[C@@H]4C[C@@H](O)[C@@H](O)C[C@]4(C)[C@H]3CC[C@]12C [β-ecdysterone] showed a BUN (rats with hyperuricemia [1]; 6 mg/kg) of 11.34 ± 4.11 mmol/L, an SCr (rats with hyperuricemia [1]; 6 mg/kg) of 51.72 ± 7.35 µmol/L and a BUN (rats with hyperuricemia [1]; 12 mg/kg) of 9.81 ± 3.76 mmol/L. For the same compound, the SCr (rats with hyperuricemia [1]; 12 mg/kg) was 47.56 ± 6.11 µmol/L, the BUN (rats with hyperuricemia [1]; 25 mg/kg) was 7.36 ± 1.71 mmol/L and the SCr (rats with hyperuricemia [1]; 25 mg/kg) was 40.73 ± 5.79 µmol/L. For the same compound, the BUN (rats with hyperuricemia [1]; 50 mg/kg) was 7.19 ± 1.00 mmol/L, the SCr (rats with hyperuricemia [1]; 50 mg/kg) was 41.30 ± 4.08 µmol/L and the BUN (rats with hyperuricemia [1]; 100 mg/kg) was 7.84 ± 2.04 mmol/L. For the same compound, the SCr (rats with hyperuricemia [1]; 100 mg/kg) was 42.15 ± 5.01 µmol/L, the BUN (rats with hyperuricemia [1]; 200 mg/kg) was 8.04 ± 3.96 mmol/L and the SCr (rats with hyperuricemia [1]; 200 mg/kg) was 44.30 ± 5.21 µmol/L. For the same compound, the “serum BUN level compared with the model group” value (rats with hyperuricemia [1]; after administration (p<0.01)) was “significantly reduced”, the “serum SCr level compared with the model group” value (rats with hyperuricemia [1]; after administration (p<0.01)) was “significantly reduced” and the “serum BUN level compared with the model group” value (rats with hyperuricemia [1]; dose too high) was “only a slight decreasing trend”. For the same compound, the “serum SCr level compared with the model group” value (rats with hyperuricemia [1]; dose too high) was “only a slight decreasing trend”, the “serum BUN level compared with the model group” value (rats with hyperuricemia [1]; dose too low) was “no significant difference” and the “serum SCr level compared with the model group” value (rats with hyperuricemia [1]; dose too low) was “no significant difference”. For the same compound, the Blood uric acid (rats with hyperuricemia [2]; 6 mg/kg) was 154.76 ± 38.71 µmol/L, the “Uric acid reduction Percentage” value (rats with hyperuricemia [2]; 6 mg/kg) was 4.98% and the Blood uric acid (rats with hyperuricemia [2]; 12 mg/kg) was 147.55 ± 39.28 µmol/L. The “Uric acid reduction Percentage” value (rats with hyperuricemia [2]; 12 mg/kg) was 10.10%, the Blood uric acid (rats with hyperuricemia [2]; 25 mg/kg) was 117.91 ± 43.74 µmol/L and the “Uric acid reduction Percentage” value (rats with hyperuricemia [2]; 25 mg/kg) was 37.78%. For the same compound, the Blood uric acid (rats with hyperuricemia [2]; 50 mg/kg) was 110.83 ± 25.02 µmol/L, the “Uric acid reduction Percentage” value (rats with hyperuricemia [2]; 50 mg/kg) was 46.58% and the Blood uric acid (rats with hyperuricemia [2]; 100 mg/kg) was 120.19 ± 68.99 µmol/L. The “Uric acid reduction Percentage” value (rats with hyperuricemia [2]; 100 mg/kg) was 35.17%, the Blood uric acid (rats with hyperuricemia [2]; 200 mg/kg) was 127.56 ± 61.77 µmol/L and the “Uric acid reduction Percentage” value (rats with hyperuricemia [2]; 200 mg/kg) was 27.36%. For the same compound, the “blood uric acid level compared to the model group” value (rats with hyperuricemia [2]; dose too low (underdose groups)) was “not significantly reduced”, the “urate crystals deposition” value (rats with hyperuricemia [3]; 50 mg/kg group) was “most obvious effect” and the “urate crystals deposition” value (rats with hyperuricemia [3]; after administration, versus model group) was “significantly reduced”. The “urate crystals deposition” value (rats with hyperuricemia [3]; lower dose) was “no significant reduction”, the “pathology of kidney tissues” value (rats with hyperuricemia [4]; 25 mg/kg) was “tubular dilatation was reduced compared with that of the model group” and the “pathology of kidney tissues” value (rats with hyperuricemia [4]; high dose group 100 mg/kg) was “tubular dilatation was reduced compared with that of the model group”. For the same compound, the “pathology of kidney tissues” value (rats with hyperuricemia [4]; medium dose group 50 mg/kg) was “tubular dilatation was significantly reduced”, the “protective effect” value (rats with hyperuricemia [4]) was “significant protective effect” and the “pathology of kidney tissues” value (rats with hyperuricemia [4]; overdose group 200 mg/kg) was “mild tubular dilatation and tubular epithelial cell detachment, and tubular wall thinning in some of the tubules were observed locally”. For the same compound, the “pathology of kidney tissues” value (rats with hyperuricemia [4]; underdose group (6 and 12 mg/kg)) was “severe tubular expansion, epithelial cell detachment, eosinophilic degeneration and inflammatory cell infiltration could still be observed”.
